# *1 amine or outer side, *2 acyl side, *3 side chain or, on linkers, in order; H or OH if unused. Where a SMILES comes first, the peptide text is derived from it. Bridges are numbered along the chain shown (N, C = ends). [ ]: non-standard residue; d: D form. Ala(6-(2-MePh)pyridin-3-yl) = Cc1ccccc1-c1ccc(C[C@H](N)C(=O)O)cn1; Phe(4-(2-Et-4-HO-Ph)) = CCc1cc(O)ccc1-c1ccc(C[C@H](N)C(=O)O)cc1; Bip(4'-COOH) = N[C@@H](Cc1ccc(-c2ccc(C(=O)O)cc2)cc1)C(=O)O; Bip(4'-NHAc) = CC(=O)Nc1ccc(-c2ccc(C[C@H](N)C(=O)O)cc2)cc1; Phe(4-(3-Py)) = N[C@@H](Cc1ccc(-c2cccnc2)cc1)C(=O)O; X10 = CCc1ccccc1-c1ccc(C[C@H](N[*:1])C(=O)[*:2])cc1; Trp(5-CN) = N#Cc1ccc2[nH]cc(C[C@H](N)C(=O)O)c2c1; Phe(3-CF3) = N[C@@H](Cc1cccc(C(F)(F)F)c1)C(=O)O; Ala(morpholin-4-yl) = N[C@@H](CN1CCOCC1)C(=O)O; Phe(4-COOH) = N[C@@H](Cc1ccc(C(=O)O)cc1)C(=O)O; Tyr(Ph) = N[C@@H](Cc1ccc(Oc2ccccc2)cc1)C(=O)O; X5 = O=C([C@H](Cc1ccc2ncccc2c1)N[*:1])[*:2]; Bip = N[C@@H](Cc1ccc(-c2ccccc2)cc1)C(=O)O; 1Nal = N[C@@H](Cc1cccc2ccccc12)C(=O)O; 2Nal = N[C@@H](Cc1ccc2ccccc2c1)C(=O)O; Bta = N[C@@H](Cc1csc2ccccc12)C(=O)O; Cha = N[C@@H](CC1CCCCC1)C(=O)O; Orn = NCCC[C@H](N)C(=O)O; Dab = NCC[C@H](N)C(=O)O
# Molecular target: T1, human PD-1 / PD-L1-Ig binding on Jurkat cell line over-expressing human PD-1 (Jurkat-PD-1) (Homo sapiens, UniProt Q15116)
# T1 construct: expressed in transfected cells; host or cells: Jurkat
# Test: Jurkat-PD-1 Cell Binding High-Content Screening Assay (CBA)
# Format: cell-based
# Settings: Jurkat-PD-1 cells, PE-labeled PD-L1-Ig 20 nM final; read-out: Jurkat HPD1_PDL1 IC50
# Method in brief: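 Jurkat-hPD-1 cells in DMEM with 10% fetal calf serum receive test compound and are held at 37° C for 2 h. PE-labeled PD-L1-Ig is added at 20 nM final and left for 1 hour. Cells are then fixed and Hoechst-stained, and binding is measured by imaging.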
# T1 sequence (Q15116 25-288): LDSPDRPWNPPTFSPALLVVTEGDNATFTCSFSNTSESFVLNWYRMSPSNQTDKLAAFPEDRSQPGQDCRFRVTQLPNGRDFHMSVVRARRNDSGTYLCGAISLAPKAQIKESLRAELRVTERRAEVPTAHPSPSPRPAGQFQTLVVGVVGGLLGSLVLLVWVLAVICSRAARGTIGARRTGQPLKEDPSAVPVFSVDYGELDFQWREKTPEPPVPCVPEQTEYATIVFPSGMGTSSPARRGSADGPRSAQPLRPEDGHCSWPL
row,IC50,Structure (SMILES)
1,94 nM,CC(C)C[C@H]1NC(=O)[C@H](CCCN)NC(=O)[C@H](Cc2ccc(C(=O)O)cc2)NC(=O)[C@H](Cc2ccc(-c3ccccc3)cc2)NC(=O)[C@H](Cc2ccc(Oc3ccccc3)cc2)NC(=O)[C@H](Cc2cccc(C(F)(F)F)c2)NC(=O)[C@H](CC(=O)O)NC(=O)[C@H](Cc2ccc(C(=O)O)cc2)NC(=O)[C@H](CN2CCOCC2)NC(=O)CSC[C@@H](C(=O)N[C@@H](CCN)C(N)=O)NC(=O)[C@H](CCC(=O)O)NC(=O)[C@H](C(C)C)NC(=O)[C@H](CC2CCCCC2)NC(=O)[C@H](CCN)NC1=O [Example 2730] ({CH2CO}-[Ala(morpholin-4-yl)][Phe(4-COOH)]D[Phe(3-CF3)][Tyr(Ph)][Bip][Phe(4-COOH)][Orn][dL][Dab][Cha]VEC[Dab]-NH2; thioether N-14)
2,1.5 nM,CC(C)C[C@H]1NC(=O)[C@H](CCCN)NC(=O)[C@H](Cc2ccc(C(=O)O)cc2)NC(=O)[C@H](Cc2ccc(-c3ccccc3)cc2)NC(=O)[C@H](Cc2ccc(-c3cccnc3)cc2)NC(=O)[C@H](Cc2cccc(C(F)(F)F)c2)NC(=O)[C@H](CC(=O)O)NC(=O)[C@H](Cc2ccc(C(=O)O)cc2)NC(=O)[C@H](CN2CCOCC2)NC(=O)CSC[C@@H](C(=O)N[C@@H](CCN)C(N)=O)NC(=O)[C@H](CCC(=O)O)NC(=O)[C@H](C(C)C)NC(=O)[C@H](CC2CCCCC2)NC(=O)[C@H](CCN)NC1=O [Example 2731] ({CH2CO}-[Ala(morpholin-4-yl)][Phe(4-COOH)]D[Phe(3-CF3)][Phe(4-(3-Py))][Bip][Phe(4-COOH)][Orn][dL][Dab][Cha]VEC[Dab]-NH2; thioether N-14)
3,1.7 nM,Cc1ccccc1-c1ccc(C[C@@H]2NC(=O)[C@H](Cc3cccc(C(F)(F)F)c3)NC(=O)[C@H](CC(=O)O)NC(=O)[C@H](Cc3ccc(C(=O)O)cc3)NC(=O)[C@H](CN3CCOCC3)NC(=O)CSC[C@@H](C(=O)N[C@@H](CCN)C(N)=O)NC(=O)[C@H](CCC(=O)O)NC(=O)[C@H](C(C)C)NC(=O)[C@H](CC3CCCCC3)NC(=O)[C@H](CCN)NC(=O)[C@@H](CC(C)C)NC(=O)[C@H](CCCN)NC(=O)[C@H](Cc3ccc(C(=O)O)cc3)NC(=O)[C@H](Cc3ccc(-c4ccccc4)cc3)NC2=O)cn1 [Example 2732] ({CH2CO}-[Ala(morpholin-4-yl)][Phe(4-COOH)]D[Phe(3-CF3)][Ala(6-(2-MePh)pyridin-3-yl)][Bip][Phe(4-COOH)][Orn][dL][Dab][Cha]VEC[Dab]-NH2; thioether N-14)
4,2.5 nM,CCc1cc(O)ccc1-c1ccc(C[C@@H]2NC(=O)[C@H](Cc3cccc(C(F)(F)F)c3)NC(=O)[C@H](CC(=O)O)NC(=O)[C@H](Cc3ccc(C(=O)O)cc3)NC(=O)[C@H](CN3CCOCC3)NC(=O)CSC[C@@H](C(=O)N[C@@H](CCN)C(N)=O)NC(=O)[C@H](CCC(=O)O)NC(=O)[C@H](C(C)C)NC(=O)[C@H](CC3CCCCC3)NC(=O)[C@H](CCN)NC(=O)[C@@H](CC(C)C)NC(=O)[C@H](CCCN)NC(=O)[C@H](Cc3ccc(C(=O)O)cc3)NC(=O)[C@H](Cc3ccc(-c4ccccc4)cc3)NC2=O)cc1 [Example 2733] ({CH2CO}-[Ala(morpholin-4-yl)][Phe(4-COOH)]D[Phe(3-CF3)][Phe(4-(2-Et-4-HO-Ph))][Bip][Phe(4-COOH)][Orn][dL][Dab][Cha]VEC[Dab]-NH2; thioether N-14)
5,5.7 nM,CCc1ccccc1-c1ccc(C[C@@H]2NC(=O)[C@H](Cc3cccc(C(F)(F)F)c3)NC(=O)[C@H](CC(=O)O)NC(=O)[C@H](Cc3ccc(C(=O)O)cc3)NC(=O)[C@H](CN3CCOCC3)NC(=O)CSC[C@@H](C(=O)N[C@@H](CCN)C(N)=O)NC(=O)[C@H](CCC(=O)O)NC(=O)[C@H](C(C)C)NC(=O)[C@H](CC3CCCCC3)NC(=O)[C@H](CCN)NC(=O)[C@@H](CC(C)C)NC(=O)[C@H](CCCN)NC(=O)[C@H](Cc3ccc(C(=O)O)cc3)NC(=O)[C@H](Cc3ccc(-c4ccccc4)cc3)NC2=O)cc1 [Example 2734] ({CH2CO}-[Ala(morpholin-4-yl)][Phe(4-COOH)]D[Phe(3-CF3)][X10][Bip][Phe(4-COOH)][Orn][dL][Dab][Cha]VEC[Dab]-NH2; thioether N-14)
6,2.2 nM,CC(C)C[C@H]1NC(=O)[C@H](CCCN)NC(=O)[C@H](Cc2ccc(C(=O)O)cc2)NC(=O)[C@H](Cc2ccc(-c3ccccc3)cc2)NC(=O)[C@H](Cc2ccc(-c3ccc(C(=O)O)cc3)cc2)NC(=O)[C@H](Cc2cccc(C(F)(F)F)c2)NC(=O)[C@H](CC(=O)O)NC(=O)[C@H](Cc2ccc(C(=O)O)cc2)NC(=O)[C@H](CN2CCOCC2)NC(=O)CSC[C@@H](C(=O)N[C@@H](CCN)C(N)=O)NC(=O)[C@H](CCC(=O)O)NC(=O)[C@H](C(C)C)NC(=O)[C@H](CC2CCCCC2)NC(=O)[C@H](CCN)NC1=O [Example 2735] ({CH2CO}-[Ala(morpholin-4-yl)][Phe(4-COOH)]D[Phe(3-CF3)][Bip(4'-COOH)][Bip][Phe(4-COOH)][Orn][dL][Dab][Cha]VEC[Dab]-NH2; thioether N-14)
7,1.1 nM,CC(=O)Nc1ccc(-c2ccc(C[C@@H]3NC(=O)[C@H](Cc4cccc(C(F)(F)F)c4)NC(=O)[C@H](CC(=O)O)NC(=O)[C@H](Cc4ccc(C(=O)O)cc4)NC(=O)[C@H](CN4CCOCC4)NC(=O)CSC[C@@H](C(=O)N[C@@H](CCN)C(N)=O)NC(=O)[C@H](CCC(=O)O)NC(=O)[C@H](C(C)C)NC(=O)[C@H](CC4CCCCC4)NC(=O)[C@H](CCN)NC(=O)[C@@H](CC(C)C)NC(=O)[C@H](CCCN)NC(=O)[C@H](Cc4ccc(C(=O)O)cc4)NC(=O)[C@H](Cc4ccc(-c5ccccc5)cc4)NC3=O)cc2)cc1 [Example 2736] ({CH2CO}-[Ala(morpholin-4-yl)][Phe(4-COOH)]D[Phe(3-CF3)][Bip(4'-NHAc)][Bip][Phe(4-COOH)][Orn][dL][Dab][Cha]VEC[Dab]-NH2; thioether N-14)
8,5.4 nM,CC(C)C[C@H]1NC(=O)[C@H](CCCN)NC(=O)[C@H](Cc2ccc(C(=O)O)cc2)NC(=O)[C@H](Cc2ccc(-c3ccccc3)cc2)NC(=O)[C@H](Cc2cccc3ccccc23)NC(=O)[C@H](Cc2cccc(C(F)(F)F)c2)NC(=O)[C@H](CC(=O)O)NC(=O)[C@H](Cc2ccc(C(=O)O)cc2)NC(=O)[C@H](CN2CCOCC2)NC(=O)CSC[C@@H](C(=O)N[C@@H](CCN)C(N)=O)NC(=O)[C@H](CCC(=O)O)NC(=O)[C@H](C(C)C)NC(=O)[C@H](CC2CCCCC2)NC(=O)[C@H](CCN)NC1=O [Example 2737] ({CH2CO}-[Ala(morpholin-4-yl)][Phe(4-COOH)]D[Phe(3-CF3)][1Nal][Bip][Phe(4-COOH)][Orn][dL][Dab][Cha]VEC[Dab]-NH2; thioether N-14)
9,2.3 nM,CC(C)C[C@H]1NC(=O)[C@H](CCCN)NC(=O)[C@H](Cc2ccc(C(=O)O)cc2)NC(=O)[C@H](Cc2ccc(-c3ccccc3)cc2)NC(=O)[C@H](Cc2ccc3ccccc3c2)NC(=O)[C@H](Cc2cccc(C(F)(F)F)c2)NC(=O)[C@H](CC(=O)O)NC(=O)[C@H](Cc2ccc(C(=O)O)cc2)NC(=O)[C@H](CN2CCOCC2)NC(=O)CSC[C@@H](C(=O)N[C@@H](CCN)C(N)=O)NC(=O)[C@H](CCC(=O)O)NC(=O)[C@H](C(C)C)NC(=O)[C@H](CC2CCCCC2)NC(=O)[C@H](CCN)NC1=O [Example 2738] ({CH2CO}-[Ala(morpholin-4-yl)][Phe(4-COOH)]D[Phe(3-CF3)][2Nal][Bip][Phe(4-COOH)][Orn][dL][Dab][Cha]VEC[Dab]-NH2; thioether N-14)
10,3.2 nM,CC(C)C[C@H]1NC(=O)[C@H](CCCN)NC(=O)[C@H](Cc2ccc(C(=O)O)cc2)NC(=O)[C@H](Cc2ccc(-c3ccccc3)cc2)NC(=O)[C@H](Cc2csc3ccccc23)NC(=O)[C@H](Cc2cccc(C(F)(F)F)c2)NC(=O)[C@H](CC(=O)O)NC(=O)[C@H](Cc2ccc(C(=O)O)cc2)NC(=O)[C@H](CN2CCOCC2)NC(=O)CSC[C@@H](C(=O)N[C@@H](CCN)C(N)=O)NC(=O)[C@H](CCC(=O)O)NC(=O)[C@H](C(C)C)NC(=O)[C@H](CC2CCCCC2)NC(=O)[C@H](CCN)NC1=O [Example 2739] ({CH2CO}-[Ala(morpholin-4-yl)][Phe(4-COOH)]D[Phe(3-CF3)][Bta][Bip][Phe(4-COOH)][Orn][dL][Dab][Cha]VEC[Dab]-NH2; thioether N-14)
11,4.8 nM,CC(C)C[C@H]1NC(=O)[C@H](CCCN)NC(=O)[C@H](Cc2ccc(C(=O)O)cc2)NC(=O)[C@H](Cc2ccc(-c3ccccc3)cc2)NC(=O)[C@H](Cc2c[nH]c3ccc(C#N)cc23)NC(=O)[C@H](Cc2cccc(C(F)(F)F)c2)NC(=O)[C@H](CC(=O)O)NC(=O)[C@H](Cc2ccc(C(=O)O)cc2)NC(=O)[C@H](CN2CCOCC2)NC(=O)CSC[C@@H](C(=O)N[C@@H](CCN)C(N)=O)NC(=O)[C@H](CCC(=O)O)NC(=O)[C@H](C(C)C)NC(=O)[C@H](CC2CCCCC2)NC(=O)[C@H](CCN)NC1=O [Example 2740] ({CH2CO}-[Ala(morpholin-4-yl)][Phe(4-COOH)]D[Phe(3-CF3)][Trp(5-CN)][Bip][Phe(4-COOH)][Orn][dL][Dab][Cha]VEC[Dab]-NH2; thioether N-14)
12,2.3 nM,CC(C)C[C@H]1NC(=O)[C@H](CCCN)NC(=O)[C@H](Cc2ccc(C(=O)O)cc2)NC(=O)[C@H](Cc2ccc(-c3ccccc3)cc2)NC(=O)[C@H](Cc2ccc3ncccc3c2)NC(=O)[C@H](Cc2cccc(C(F)(F)F)c2)NC(=O)[C@H](CC(=O)O)NC(=O)[C@H](Cc2ccc(C(=O)O)cc2)NC(=O)[C@H](CN2CCOCC2)NC(=O)CSC[C@@H](C(=O)N[C@@H](CCN)C(N)=O)NC(=O)[C@H](CCC(=O)O)NC(=O)[C@H](C(C)C)NC(=O)[C@H](CC2CCCCC2)NC(=O)[C@H](CCN)NC1=O [Example 2741] ({CH2CO}-[Ala(morpholin-4-yl)][Phe(4-COOH)]D[Phe(3-CF3)][X5][Bip][Phe(4-COOH)][Orn][dL][Dab][Cha]VEC[Dab]-NH2; thioether N-14)

# Reference: patent US20250163104A1, “MACROCYCLIC IMMUNOMODULATORS” (priority 2021, published 2025)
